Results reported in patent US8338471B2, “(2,5-dioxoimidazolidin-i-yl)-n-hydroxy-acetamides as metalloproteinase inhibitors” (Medivir AB, priority 2005, dated 2012).

Target: T1, recombinant human MMP-12 (Homo sapiens, UniProt P39900)
T1 construct: purchased R&D Systems; host or cells: mouse myeloma cell line NS-40 (so in the source)
Experiment: MMP-12 enzyme assay (FRET substrate)
Format: biochemical
Description: A typical MMP-12 enzyme assay employs recombinant human MMP-12 catalytic domain expressed and purified as described by Parkar A. A. et al, (2000), Protein Expression and Purification, 20:152. The purified enzyme can be used to monitor inhibitors of activity as follows: MMP-12 (50 ng/ml final concentration) is incubated for 60 minutes at room temperature with the synthetic substrate Mac-Pro-Cha-Gly-Nva-His-Ala-Dpa-NH2 in assay buffer (0.1M “Tris-HCl” (trade mark) buffer, pH 7.3 containing O.1M NaCl, 20 mM CaCl2, 0.020 mM ZnCl and 0.05% (w/v) “Brij 35” (trade mark) detergent) in the presence (5 concentrations) or absence of inhibitors. Activity is determined by measuring the fluorescence at λex 320 nm and λem 405 nm. Percent inhibition is calculated as follows: % Inhibition is equal to the (Fluorescenceplus inhibitor−Fluorescencebackground); divided by the (Fluorescenceminus inhibitor−Fluorescencebackground);
A favoured assay employs full length recombinant human MMP-12, amino acid residues 1 to 470 (Shapiro et al 1993, J Biol Chem 268:23824-23829) expressed in mouse myeloma cell line NS-40. The purified rhMMP-12 typically has the N terminal sequence L17PLNSSTSLE and an SDS-PAGE apparent molecular mass of approx. 56 kDa. Such proteins are available from R&D Systems, USA as a lyophilised 0.2 um filtered solution of 25 mM MES, 0.15M NaCl, 10 mMCaCl2, 0.15% Brij 35, pH 5.5. Auto-activation of the rhMMP-12 can be achieved by dilution to 0.05 mg/ml into TCNB buffer (50 mMTris, 10 mM CaCl2, 0.15M NaCl, 0.05% Brij 35, pH 7) and incubation at 37 degrees for 30 hours. A preferred buffer for MMP work is 50 mM Tris.HCl, pH 7.5, 200 mM Ca acetate.
Suitable FRET substrates include (7-methoxycoumarin-4-yl)acetyl-Pro-Leu-Gly-Leu-(3-(2,4-dinitrophenoyl)-L-2,3-diaminopropionyl)-Ala-Arg-NH2, commercially available from R&D Systems, USA. Typical specific activities are >500 picomol/min/ug, with rhMMP-12 measured with 10 uM of this substrate, 20 ng activated enzyme in 100 ul TCNB buffer at room temperature.
An alternative general MMP substrate is Dnp-PLGLWAD-R-NH2.
Category A indicates ≦50 nM inhibition, category B indicates 51-200 nM inhibition and category C indicates >200 nM: […]

T1 sequence (P39900 106-470): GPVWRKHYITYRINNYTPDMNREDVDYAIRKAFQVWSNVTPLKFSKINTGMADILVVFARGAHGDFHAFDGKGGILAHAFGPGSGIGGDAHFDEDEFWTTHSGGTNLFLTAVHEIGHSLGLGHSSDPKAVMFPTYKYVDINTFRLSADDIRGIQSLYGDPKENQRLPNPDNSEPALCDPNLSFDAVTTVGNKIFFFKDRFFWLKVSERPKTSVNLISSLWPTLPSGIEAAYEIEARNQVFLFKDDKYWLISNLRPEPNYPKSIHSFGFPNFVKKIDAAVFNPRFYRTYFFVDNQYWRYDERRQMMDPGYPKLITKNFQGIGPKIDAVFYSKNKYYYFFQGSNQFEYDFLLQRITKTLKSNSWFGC

| Compound | Ki |
| --- | --- |
| CC(C)[C@H](C(=O)NO)N1C(=O)N[C@@H](CCc2ccc(Oc3ccccc3)cc2)C1=O (stereo in doubt) [Example 26, 2-{2,5-Dioxo-4-[2-(4-phenoxyphenyl)-ethyl]-imidazolidin-1-yl}-N-hydroxy-3-methyl-butyramide] | ≤ 0.05 µM |
| Cc1cccc(CCC2NC(=O)N(C(C(=O)NO)C(C)C)C2=O)c1 (stereo not shown) [Example 29, 2-[2,5-Dioxo-4-(2-m-tolylethyl)-imidazolidin-1-yl]-N-hydroxy-3-methyl-butyramide] | ≤ 0.05 µM |
| COc1ccc(CC[C@@H]2NC(=O)N([C@@H](C(=O)NO)C(C)C)C2=O)cc1 [Example 33, N-Hydroxy-2-{4-[2-(4-methoxyphenyl)-ethyl]-2,5-dioxoimidazolidin-1-yl}-3-methylbutyramide] | ≤ 0.05 µM |
| CCc1ccc(CC[C@@H]2NC(=O)N([C@@H](C(=O)NO)C(C)C)C2=O)cc1 [Example 34, 2-{4-[2-(4-Ethylphenyl)-ethyl]-2,5-dioxoimidazolidin-1-yl}-N-hydroxy-3-methyl-butyramide] | ≤ 0.05 µM |
| CC(C)[C@H](C(=O)NO)N1C(=O)N[C@@H](CCc2cccc(F)c2)C1=O [Example 37, 2-{4-[2-(3-Fluoro-phenyl)-ethyl]-2,5-dioxoimidazolidin-1-yl}-N-hydroxy-3-methylbutyramide] | ≤ 0.05 µM |
| CC(C)[C@H](C(=O)NO)N1C(=O)N[C@@H](CCc2ccc(Cc3ccccc3)cc2)C1=O [Example 39, 2-{4-[2-(4-Benzylphenyl)-ethyl]-2,5-dioxoimidazolidin-1-yl}-N-hydroxy-3-methylbutyramide] | ≤ 0.05 µM |

Continued, values first:

| Ki | Compound |
| --- | --- |
| > 0.2 µM | CC(C)[C@H](C(=O)NO)N1C(=O)N[C@@H](CCCCNC(=O)c2ccccc2)C1=O [Example 25h] |
| ≤ 0.05 µM | Cc1ccccc1CCC1NC(=O)N(C(C(=O)NO)C(C)C)C1=O (stereo not shown) [Example 28, 2-[2,5-Dioxo-4-(2-o-tolylethyl)-imidazolidin-1-yl]-N-hydroxy-3-methyl-butyramide] |
| ≤ 0.05 µM | COc1ccccc1CCC1NC(=O)N(C(C(=O)NO)C(C)C)C1=O (stereo not shown) [Example 31, N-Hydroxy-2-{4-[2-(2-methoxyphenyl)-ethyl]-2,5-dioxo-imidazolidin-1-yl}-3-methyl-butyramide] |
| ≤ 0.05 µM | CC(C)[C@H](C(=O)NO)N1C(=O)N[C@@H](CCc2ccc(C(=O)Cc3ccccc3)cc2)C1=O [Example 40, 2-{2,5-Dioxo-4-[2-(4-phenylacetyl-phenyl)-ethyl]-imidazolidin-1-yl}-N-hydroxy-3-methylbutyramide] |
